# Measurements as given in publication PMC13077603, “Fluorine‐18‐Labeled Nucleotide Analogs Targeting Ecto‐5'‐Nucleotidase (CD73) for Positron Emission Tomography Imaging of Solid Tumors” (Angewandte Chemie (International Ed. in English), 2026).
# What was measured:
# [1] = molecular target: T1, Mouse membrane‐bound CD73 (membrane preparation of 4T1.2 breast cancer cell line) (Mus musculus, UniProt Q61503); assay: CD73 enzyme inhibition assay, mouse membrane-bound CD73; assay type: biochemical; details: membrane preparation of mouse 4T1.2 breast cancer cell line, Km 67.6 µM, substrate AMP (5 µM)
# T1 construct: endogenous in cells; host or cells: 4T1.2 mouse breast cancer cell line, membrane preparation (as named in the result head)
# T1 sequence (Q61503 29-576): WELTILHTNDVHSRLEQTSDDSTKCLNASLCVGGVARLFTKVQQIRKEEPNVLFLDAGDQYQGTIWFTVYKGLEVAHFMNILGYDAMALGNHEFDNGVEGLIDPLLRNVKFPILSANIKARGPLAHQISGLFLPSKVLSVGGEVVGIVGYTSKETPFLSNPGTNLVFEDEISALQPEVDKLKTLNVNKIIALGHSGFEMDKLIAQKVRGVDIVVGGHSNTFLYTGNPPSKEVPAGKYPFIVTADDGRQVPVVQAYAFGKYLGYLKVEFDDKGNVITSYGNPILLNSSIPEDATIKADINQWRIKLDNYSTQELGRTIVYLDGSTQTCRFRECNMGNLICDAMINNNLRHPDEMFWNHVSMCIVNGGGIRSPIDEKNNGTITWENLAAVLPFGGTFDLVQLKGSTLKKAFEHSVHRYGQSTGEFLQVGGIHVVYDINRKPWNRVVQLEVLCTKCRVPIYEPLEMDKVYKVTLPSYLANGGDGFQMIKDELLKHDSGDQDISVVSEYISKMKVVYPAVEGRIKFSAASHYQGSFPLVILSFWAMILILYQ
# Procedure: Both compounds were evaluated for metabolic stability in mouse liver microsomes (MLM) and plasma protein binding (PPB) (Table 1).
# The CD73 enzyme inhibition assay of recombinant soluble CD73, membrane-bound human CD73, soluble rat CD73 and mouse CD73 was performed as previously described.^[16,35^]
# [2] = molecular target: Human serum albumin (HSA) (Homo sapiens, UniProt P02768); assay: Plasma protein binding (human serum albumin binding); assay type: in vitro ADME; details: human serum albumin, read-out: Plasma protein binding (PPB) (converted)
# Sequence of Human serum albumin (HSA) (P02768 25-609): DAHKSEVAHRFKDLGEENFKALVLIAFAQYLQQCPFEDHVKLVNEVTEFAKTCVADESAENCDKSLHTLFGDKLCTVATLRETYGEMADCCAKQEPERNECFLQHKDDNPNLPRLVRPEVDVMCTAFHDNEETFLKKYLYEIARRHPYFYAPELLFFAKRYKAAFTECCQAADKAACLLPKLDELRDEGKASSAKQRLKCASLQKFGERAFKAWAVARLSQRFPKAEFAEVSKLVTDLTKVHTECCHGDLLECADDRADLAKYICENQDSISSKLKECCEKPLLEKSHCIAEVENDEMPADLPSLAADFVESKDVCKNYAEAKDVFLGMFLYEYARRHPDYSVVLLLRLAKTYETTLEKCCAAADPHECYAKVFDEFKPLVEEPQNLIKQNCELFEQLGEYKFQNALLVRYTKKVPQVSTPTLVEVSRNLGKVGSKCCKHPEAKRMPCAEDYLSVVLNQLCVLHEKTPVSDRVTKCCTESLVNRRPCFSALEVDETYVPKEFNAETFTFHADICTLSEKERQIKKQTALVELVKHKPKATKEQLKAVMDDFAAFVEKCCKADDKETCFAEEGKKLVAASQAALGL
# Procedure: Human serum albumin (HSA) binding.
# Plasma protein binding was determined following previously published procedure.^[38^]
smiles,measurement,setting,value
CCCN(Cc1ccc(-c2cn(CCF)nn2)cc1)c1nc(Cl)nc2c1ncn2[C@@H]1O[C@H](COP(=O)(O)CP(=O)(O)O)[C@@H](O)[C@H]1O [compound 1],Ki,[1],47.8 nM
same,fraction unbound,[2],< 0.01
